In patent US5488060A, “Substituted thiadiazoles, compositions containing them and their use as antimicrobial and marine antifouling agents” (The Dow Chemical Company, priority 1994, dated 1996):
Like-named read-outs stand apart in the source and are kept apart here.

Tests used:
Type in all cases: cell-based
[1] = tested on: Enterobacter aerogenes (Ea); test: Minimum inhibitory concentration (MIC) in nutrient agar, Enterobacter aerogenes; settings: Klebsiella aerogenes
Protocol: (§1) The antimicrobial activity of the compounds of the present invention is set forth as the minimum inhibitory concentration (MIC) for the active compounds and is determined for nine (9) bacteria, using nutrient agar, and seven (7) yeast and fungi, using malt yeast agar. This determination is conducted using a one percent solution of the test compound prepared in a mixture of acetone and water.
(§2) Nutrient agar is prepared at pH 6.8, representing a neutral medium, and at pH 8.2, representing an alkaline medium. The nutrient agars are prepared by adding 23 g of nutrient agar to one-liter of deionized water. In addition, the alkaline medium is prepared by adjusting a 0.04M solution of N-[tris-(hydroxymethyl)methyl]glycine buffered deionized water with concentrated sodium hydroxide to a pH of 8.5.
(§3) The test tubes containing the agar are cooled in a water bath until the temperature of the agar is 48° C. Then, an appropriate amount of the one percent solution of the test compound is added (except in the controls where no compound is added) to the respective test tubes so that the final concentrations are 500, […], 100, 50, 25, 10, 5, 2.5, 1.0 and zero parts per million of the test compound in the agar, thus having a known concentration of test compound dispersed therein. The contents of the test tubes are then transferred to respective petri plates. After drying for 24 hours, the petri plates containing nutrient agar are inoculated with bacteria and those containing malt yeast agar are inoculated with yeast and fungi.
(§4) The inoculation with bacteria is accomplished by using the following procedure. Twenty-four hour-cultures of each of the bacteria are prepared by incubating the respective bacteria in tubes containing nutrient broth for 24 hours at 30° C. in a shaker. Dilutions of each of the 24 hour-cultures are made so that nine separate suspensions (one for each of the nine test bacteria) are made, each containing 10^8 colony forming units (CFU) per mL of suspension of a particular bacteria. Aliquots of 0.3 mL of each of the bacterial suspensions are used to fill the individual wells of Steer's Replicator. For each microbial suspension, 0.3 mL was used to fill three wells (i.e., three wells of 0.3 mL each) so that for the nine different bacteria, 27 wells are filled. The Steer's Replicator is then used to inoculate both the neutral and alkaline pH nutrient agar petri plates.
(§5) The inoculated petri plates are incubated at 30° C. for 48 hours and then read to determine if the test compound which is incorporated into the agar prevented growth of the respective bacteria.

Proteus vulgaris (Pv) = test: Minimum inhibitory concentration (MIC) in nutrient agar, Proteus vulgaris
Protocol: as §1, §2, §3, §4, §5

Fusarium oxysporum (Fo) = test: Minimum inhibitory concentration (MIC) in malt yeast agar, Fusarium oxysporum
Protocol: as §1
(§6) Malt yeast agar is prepared at pH 5.5 by adding 3 g yeast extract and 45 g malt agar per liter of deionized water. The specific agar is dispensed in 30 mL aliquots into 25×200 mm test tubes, capped and autoclaved for 15 minutes at 115° C.
as §3
(§7) The inoculation with the yeast and fungi is accomplished as follows. Cultures of yeast and fungi are incubated for seven days on malt yeast agar at 30° C. These cultures are used to prepare suspensions by the following procedure. A suspension of each organism is prepared by adding 10 mL of sterile saline and 10 microliters of octylphenoxy polyethoxy ethanol to the agar slant of yeast or fungi. The sterile saline/octylphenoxy potyethoxy ethanol solution is then agitated with a sterile swab to suspend the microorganism grown on the slant. Each resulting suspension is diluted into sterile saline (1 part suspension: 9 parts sterile saline). Aliquots of these dilutions are placed in individual wells of Steer's Replicator and petri plates inoculated as previously described. The petri plates are incubated at 30° C. and read after 48 hours for yeast and 72 hours for fungi.

[2] = tested on: Salmonella choleraesuis (Se); test: Minimum inhibitory concentration (MIC) in nutrient agar, Salmonella choleraesuis; settings: Salmonella enterica
Protocol: as §1, §2, §3, §4, §5

[3] = tested on: Saccharomyces cerevisiae (Sc); test: Minimum inhibitory concentration (MIC) in malt yeast agar, Saccharomyces cerevisiae; settings: pH 5.5, malt yeast agar, 30° C., 48 hours for yeast, read-out: Minimum Inhibitory Concentration, SC
Protocol: as §1, §6, §3, §7

Bacillus subtilis (Bs) = test: Minimum inhibitory concentration (MIC) in nutrient agar, Bacillus subtilis
Protocol: as §1, §2, §3, §4, §5

Trichoderma viride (Tv) = test: Minimum inhibitory concentration (MIC) in malt yeast agar, Trichoderma viride; settings: pH 5.5; malt yeast agar, 30° C., 72 hours for fungi; read-out: Minimum Inhibitory Concentration, Tv
Protocol: as §1, §6, §3, §7

[4] = tested on: Pseudomonas aeruginosa (Pa); test: Minimum inhibitory concentration (MIC) in nutrient agar, Pseudomonas aeruginosa; settings: 30° C., 48 hours, read-out: Minimum Inhibitory Concentration, Pa
Protocol: as §1, §2, §3, §4, §5

[5] = tested on: Penicillium chrysogenum (Pc); test: Minimum inhibitory concentration (MIC) in malt yeast agar, Penicillium chrysogenum
Protocol: as §1, §6, §3, §7

[6] = tested on: Klebsiella pneumoniae (Kp); test: Minimum inhibitory concentration (MIC) in nutrient agar, Klebsiella pneumoniae
Protocol: as §1, §2, §3, §4, §5

Escherichia coli (Ec) = test: Minimum inhibitory concentration (MIC) in nutrient agar, Escherichia coli
Protocol: as §1, §2, §3, §4, §5

[7] = tested on: Aureobasidium pullulan (Ap); test: Minimum inhibitory concentration (MIC) in malt yeast agar, Aureobasidium pullulan
Protocol: as §1, §6, §3, §7

[8] = tested on: Pseudomonas aeruginosa (PRD-10); test: Minimum inhibitory concentration (MIC) in nutrient agar, Pseudomonas aeruginosa PRD-10
Protocol: as §1, §2, §3, §4, §5

Aspergillus niger (An) = test: Minimum inhibitory concentration (MIC) in malt yeast agar, Aspergillus niger; settings: pH 5.5; malt yeast agar, 30° C., 72 hours for fungi; read-out: Minimum Inhibitory Concentration, An
Protocol: as §1, §6, §3, §7

Candida albicans (Ca) = test: Minimum inhibitory concentration (MIC) in malt yeast agar, Candida albicans; settings: 48 h, pH 5.5, read-out: Minimum Inhibitory Concentration, Ca
Protocol: as §1, §6, §3, §7

[9] = tested on: Staphylococcus aureus (Sa); test: Minimum inhibitory concentration (MIC) in nutrient agar, Staphylococcus aureus
Protocol: as §1, §2, §3, §4, §5

[10] = 48 h, pH 8.2, read-out: Minimum Inhibitory Concentration, Ea
[11] = pH 6.8, nutrient agar, 30° C., 48 hours, read-out: Minimum Inhibitory Concentration, Kp
[12] = 48 h, pH 6.8, read-out: Minimum Inhibitory Concentration, Ec
[13] = pH 6.8, nutrient agar, 30° C., 48 hours, read-out: Minimum Inhibitory Concentration, Sa

Measured: MIC

N#CSc1nsnc1-c1ccc(F)cc1 [Example V, 4-(4-Fluorophenyl)-3-thiocyanato-1,2,5-thiadiazole]
25 µg/mL: Proteus vulgaris (Pv); pH 6.8, nutrient agar, 30° C., 48 hours, read-out: Minimum Inhibitory Concentration, Pv | Trichoderma viride (Tv) | Candida albicans (Ca) | [9]; [13]
5 µg/mL: [3] | Aspergillus niger (An)
50 µg/mL: Bacillus subtilis (Bs); pH 8.2, nutrient agar, 30° C., 48 hours, read-out: Minimum Inhibitory Concentration, Bs | Escherichia coli (Ec); [12] | [9]; pH 8.2, nutrient agar, 30° C., 48 hours, read-out: Minimum Inhibitory Concentration, Sa
< 10 µg/mL: Bacillus subtilis (Bs); pH 6.8, nutrient agar, 30° C., 48 hours, read-out: Minimum Inhibitory Concentration, Bs
10 µg/mL: Fusarium oxysporum (Fo); pH 5.5, malt yeast agar, 30° C., 72 hours for fungi, read-out: Minimum Inhibitory Concentration, Fo
2.5 µg/mL: [5]; 72 h, pH 5.5, read-out: Minimum Inhibitory Concentration, PC | [7]; pH 5.5, read-out: Minimum Inhibitory Concentration, Ap
250 µg/mL: [1]; pH 6.8, nutrient agar, 30° C., 48 hours, read-out: Minimum Inhibitory Concentration, Ea | [2]; pH 8.2, nutrient agar, 30° C., 48 hours, read-out: Minimum Inhibitory Concentration, SC | Escherichia coli (Ec); pH 8.2, nutrient agar, 30° C., 48 hours, read-out: Minimum Inhibitory Concentration, Ec | [8]; pH 6.8, nutrient agar, 30° C., 48 hours, read-out: Minimum Inhibitory Concentration, PRD | [8]; pH 8.2, nutrient agar, 30° C., 48 hours, read-out: Minimum Inhibitory Concentration, PRD
500 µg/mL: [1]; [10]
100 µg/mL: Proteus vulgaris (Pv); pH 8.2, nutrient agar, 30° C., 48 hours, read-out: Minimum Inhibitory Concentration, Pv | [2]; pH 6.8, nutrient agar, 30° C., 48 hours, read-out: Minimum Inhibitory Concentration, SC | [4]; pH 6.8, nutrient agar | [4]; pH 8.2, nutrient agar | [6]; [11] | [6]; pH 8.2, nutrient agar, 30° C., 48 hours, read-out: Minimum Inhibitory Concentration, Kp

COc1ccc(-c2nsnc2SC#N)cc1 [Example VIII, 4-(4-Methoxyphenyl)-3-thiocyanato-1,2,5-thiadiazole]
9 µg/mL: [3] | Trichoderma viride (Tv) | [7]; pH 5.5, malt yeast agar, 30° C., read-out: Minimum Inhibitory Concentration, Ap
> 500 µg/mL: [1]; 48 h, pH 6.8, read-out: Minimum Inhibitory Concentration, Ea | [1]; [10] | Proteus vulgaris (Pv); 48 h, pH 6.8, read-out: Minimum Inhibitory Concentration, Pv | Proteus vulgaris (Pv); 48 h, pH 8.2, read-out: Minimum Inhibitory Concentration, Pv | [2]; 48 h, pH 6.8, read-out: Minimum Inhibitory Concentration, SC | [2]; 48 h, pH 8.2, read-out: Minimum Inhibitory Concentration, SC | Bacillus subtilis (Bs); 48 h, pH 8.2, read-out: Minimum Inhibitory Concentration, Bs | [4]; pH 6.8, nutrient agar | [4]; pH 8.2, nutrient agar | [5]; pH 5.5, malt yeast agar, 30° C., 72 hours for fungi, read-out: Minimum Inhibitory Concentration, PC | [6]; 48 h, pH 8.2, read-out: Minimum Inhibitory Concentration, Kp | [6]; [11] | Escherichia coli (Ec); [12] | Escherichia coli (Ec); 48 h, pH 8.2, read-out: Minimum Inhibitory Concentration, Ec | [8]; 48 h, pH 6.8, read-out: Minimum Inhibitory Concentration, PRD | [8]; 48 h, pH 8.2, read-out: Minimum Inhibitory Concentration, PRD | [9]; 48 h, pH 8.2, read-out: Minimum Inhibitory Concentration, Sa | [9]; [13]
25 µg/mL: Candida albicans (Ca)
100 µg/mL: Bacillus subtilis (Bs); 48 h, pH 6.8, read-out: Minimum Inhibitory Concentration, Bs | Aspergillus niger (An)
50 µg/mL: Fusarium oxysporum (Fo); 72 h, pH 5.5, read-out: Minimum Inhibitory Concentration, Fo
